Converted amounts (≈) assume the structure as drawn. Read-outs that look alike come from different tables or passages of the source.

For orientation: IC50 means the concentration that gives 50% inhibition.

Data set [1] relates to U-2 OS human osteosarcoma cells. In words: cells. The data set is classed as cell-based. To be noted: average of two measurements. On the procedure:
(§1) Cytotoxicity testing of pretubulysin (AU827), N-desmethyl-pretubulysin (AU816) and Tubulysin A and D was performed as follows: Cells were seeded at 6×10^3 cells per well of 96-well plates in 180 μl complete medium and directly treated with varying concentrations of (pre-)tubulysins diluted in methanol. Each compound was tested in duplicate as well as the internal methanol control. After 5 d incubation, 20 μl of 5 mg/ml MTT (Thiazolyl blue tetrazolium bromide) in PBS was added per well and it was further incubated for 2 h at 37° C. The medium was then discarded and cells were washed with 100 μl PBS before adding 100 μl 2-propanol/10 N HCl (250:1) in order to dissolve formazan granules.
The absorbance at 570 nm was measured using a microplate reader (EL808, Bio-Tek Instruments Inc.), and cell viability was expressed as percentage relative to the respective methanol control. IC50 values were obtained by plotting relative growth inhibition in % against the compound concentration on a logarithmic scale. After sigmoidal curve fitting IC50 values can be determined. The IC50[per ml] are shown in the following table (values represent the average of two measurements):
Similarly cytotoxicity testing of Pretubulysin-related compounds in U-2 OS human osteosarcoma cells was performed and was further compared with AU 339 and AU 954, compounds mentioned in WO2008/106080 and WO2004/046170. The IC50 values are shown in the following table (values represent the average of two measurements): […]

Another data set deals with HL-60 cells. The data set can be described thus: cells. The settings on record: for anti-proliferation effects: HL-60, concentrations up to 100 ng/ml. The method, then:
A given number of cells were cultivated in 96-well plates with serial dilutions of the drugs up to 100 ng/ml. Tubulysin A is used as a positive control, whereas methanol is used as a negative control. After 5 days of incubation the metabolic activities of the cells were measured using MTT-assay as described under the methods section.
The effect of pre-tubulysin 816 and 827 was tested with regard to the growth of other cell lines, including the mouse connective tissues fibroblast L929, the human lung carcinoma cell line A549, the human colon adenocarcinoma cell line SW-480, and the human histiocytic lymphoma cell line U937, in addition to the human myeloid leukemia cell line HL-60.

Data set [2] relates to L929. The data set can be described thus: Anti-proliferation MTT assay (Example 2, Table 1). In kind it is cell-based. The settings on record: L929 mouse connective tissue fibroblast.
Data set [3] deals with U937. The data set can be described thus: Anti-proliferation MTT assay (Example 2, Table 1). In kind it is cell-based. To be noted: U937 human histiocytic lymphoma. (In general: Tetrazolium assays rely on reduction of a dye to a coloured formazan, in cell work by metabolically active cells.)
The next data set concerns COS-7. The data set can be described thus: cells. The settings on record: COS-7, average of two measurements. The data set is classed as cell-based, African green monkey. The method, then: as §1
(§2) The absorbance at 570 nm was measured using a microplate reader (EL808, Bio-Tek Instruments Inc.), and cell viability was expressed as percentage relative to the respective methanol control. IC50 values were obtained by plotting relative growth inhibition in % against the compound concentration on a logarithmic scale. After sigmoidal curve fitting IC50 values can be determined. The IC50[per ml] are shown in the following table (values represent the average of two measurements): […]

In data set [4] the test system is L929. The data set can be described thus: cells. The settings on record: L929, average of two measurements. The data set is classed as cell-based, mouse. On the procedure:
as §1, §2

The subject of another data set is A431. The data set can be described thus: cells. In kind it is cell-based, human. The settings on record: A431, average of two measurements. The method, then:
as §1, §2

A further data set concerns A549. In words: cells. The data set is classed as cell-based, human. To be noted: A549, average of two measurements. On the procedure: as §1, §2
Another data set relates to HEK293T. The data set can be described thus: cells. In kind it is cell-based, human. To be noted: average of two measurements. On the procedure: as §1, §2
For a further data set, the system named is HL-60. In words: cells. The data set is classed as cell-based, human. The settings on record: HL-60, average of two measurements. On the procedure:
as §1, §2

A further data set concerns HepG2. The data set can be described thus: cells. In kind it is cell-based, human. The settings on record: HepG2, average of two measurements. On the procedure:
as §1, §2

In another data set the test system is K562. The data set can be described thus: cells. The data set is classed as cell-based, human. The settings on record: K562, average of two measurements. The method, then: as §1, §2
The next data set relates to KB3.1. The data set can be described thus: cells. The data set is classed as cell-based, human. The settings on record: KB3.1, average of two measurements. The method, then: as §1, §2
For another data set, the system named is SH-SY5Y. The data set can be described thus: cells. The settings on record: average of two measurements. In kind it is cell-based, human. On the procedure: as §1, §2
A further data set relates to SW480. The data set can be described thus: cells. The settings on record: SW480, average of two measurements. The data set is classed as cell-based, human. On the procedure: as §1, §2
Data set [5] concerns U937. In words: cells. The settings on record: U937, average of two measurements. The data set is classed as cell-based, human. On the procedure:
as §1, §2

The next data set concerns PtK2 cells. The data set is classed as cell-based. To be noted: 24 hours incubation. The method, then:
Cell staining: Ptk2 cells were seeded on round glass coverslips (13 mm in diameter) in 4-well plates. Cells were incubated with the drugs to the given times as indicated for each experiment. For staining the microtubules and the nuclei, cells were firstly fixed with cold (−20° C.) acetone/methanol (1:1) for 10 min. For labelling the microtubules, cells were incubated with a primary monoclonal antibody against α-tubulin (1:500 Sigam) for 45 min at 37° C., followed by a secondary anti-mouse IgG antibody conjugated with Alexa488 (1:2000; Molecular probes) under the same incubations conditions. The nuclei were stained with DAPI (1 μg/ml in PBS). The cells were washed with phosphate buffer saline (PBS) between incubations. Coverslips were mounted by using Prolong Antifade (Molecular Probes) and imaged through a fluorescence microscope (LSM-Zeiss) with appropriate filter set.
Tubulysin A and D are known to induce de-polymerization of the interphase microtubules of mammalian cells and additionally induce a multi-polar spindle pool in mitotic cells (Khalil, M. et al., Chembiochem. 7, 678-683 (2006); Sasse, F., Menche, D. Nat. Chem. Biol. 3, 87-89 (2007)). Here the effect of pre-tubulysin treatment on the morphologies of microtubules and microtubules related structures in PtK2 cells was tested. PtK2 cells were seeded onto glass cover clips in 4 well plates and cultivated for 24 or 48 hours under growth conditions. The cells were then treated with different concentrations of tubulysin A, tubulysin D, pre-tubulysin-816 or pre-tubulysin-827. The control cells were treated only with equivalent amount of methanol (solvent). The cells were thin incubated for further 24 hours before they were fixed as described under the methods section. Fixed cells were then washed with PBS and finally labeled with anti-α-tubulin primary antibodies followed by anti-mouse-alexa-488 secondary antibodies to visualize the microtubules. The nuclei were stained with DAPI.

For the next data set, the system named is cancer cell lines. To be noted: growth inhibition of cancer cell lines; cited from earlier work.
Setting [6] is: Homo sapiens, U2OS, comparison with prior art compounds, read-out: IC50.

Take `CCOC(=O)/C(C)=C/[C@H](Cc1ccccc1)NC(=O)c1csc(CC[C@H](C(C)C)N(C)C(=O)[C@@H](NC(=O)[C@H]2CCCCN2C)[C@@H](C)CC)n1` [AU939]: the half-inhibitory concentration (IC50) in [1] (setting [6]) came to 339 ng/mL (≈ 487 nM).
For `CC[C@H](C)[C@H](NC(=O)[C@H]1CCCCN1C)C(=O)N(C)[C@H](CCc1nc(C(=O)N[C@H](/C=C(\C)C(=O)O)Cc2ccccc2)cs1)C(C)C` [AU954], the half-maximal inhibitory concentration (IC50) in [1] (setting [6]) worked out at 82 ng/mL (≈ 123 nM).
For the compound `CC[C@H](C)[C@H](NC(=O)[C@H]1CCCCN1C)C(=O)N(COC(=O)CC(C)C)[C@H](C[C@@H](OC(C)=O)c1nc(C(=O)N[C@@H](Cc2ccc(O)cc2)C[C@H](C)C(=O)O)cs1)C(C)C` [Tubulysin A, reference compound], the concentration for half-maximal inhibition (IC50) with HL-60 cells (HL-60, serial dilutions up to 100 ng/ml, 5 days, MTT) is 0.0019 ng/mL (≈ 0.00225 nM); in the data set with COS-7, 80.6 pg/mL (≈ 0.0955 nM); in the data set with L929 [4], 0.21 ng/mL (≈ 0.249 nM); with A431, 100.2 pg/mL (≈ 0.119 nM); with A549, 85.6 pg/mL (≈ 0.101 nM); in the data set with HEK293T, 52.3 pg/mL (≈ 0.062 nM). The IC50 in the data set with HL-60 amounted to 47.9 pg/mL (≈ 0.0567 nM); in the data set on HepG2, 120 pg/mL (≈ 0.142 nM); with K562, 0.40 ng/mL (≈ 0.474 nM); with KB3.1, 0.16 ng/mL (≈ 0.19 nM); in the data set on SH-SY5Y it was 0.21 ng/mL (≈ 0.249 nM); in the data set on SW480, 18.7 pg/mL (≈ 0.0222 nM). Also, the 50% inhibitory concentration (IC50) is 46.1 pg/mL (≈ 0.0546 nM) in the data set with U937 [5], 0.19 ng/mL (≈ 0.225 nM) in data set [1] and 0.19 ng/mL (≈ 0.225 nM) in [1] (comparison with prior art compounds). Besides, the figures for the IC50 value with HL-60 cells (HL-60 human acute myeloid leukemia (Table 1)), with L929 [2] and in the data set on U937 [3] were 0.002 ng/mL (≈ 0.00237 nM), 0.15 ng/mL (≈ 0.178 nM) and 0.002 ng/mL (≈ 0.00237 nM), respectively. The “concentration for complete de-polymerization (disappearance) of interphase microtubules” value in the data set with PtK2 cells turned out to be 500 pg/mL.
On to `CC[C@H](C)[C@H](NC(=O)[C@H]1CCCCN1C)C(=O)N(COC(=O)CC(C)C)[C@H](C[C@@H](OC(C)=O)c1nc(C(=O)N[C@@H](Cc2ccccc2)C[C@H](C)C(=O)O)cs1)C(C)C` [Tubulysin D, reference compound], for which the concentration for half-maximal inhibition (IC50) came to 33.7 pg/mL (≈ 0.0407 nM) with COS-7 (Chlorocebus sabaeus, read-out: IC50); 0.017 ng/mL (≈ 0.0205 nM) in the data set with L929 [4] (Mus musculus, read-out: IC50); 11.9 pg/mL (≈ 0.0144 nM) in the data set on A431 (Homo sapiens, A-431, read-out: IC50); 5.6 pg/mL (≈ 0.00676 nM) with A549 (Homo sapiens, read-out: IC50); 10.4 pg/mL (≈ 0.0126 nM) with HEK293T (Homo sapiens, HEK-293T, read-out: IC50); 2.8 pg/mL (≈ 0.00338 nM) with HL-60 (Homo sapiens, read-out: IC50). In addition, the half-maximal inhibitory concentration (IC50) in the data set with HepG2 (Homo sapiens, read-out: IC50) turned out to be 6.6 pg/mL (≈ 0.00797 nM); in the data set with K562 (Homo sapiens, read-out: IC50), 0.0222 ng/mL (≈ 0.0268 nM); with KB3.1 (Homo sapiens, KB 3-1, read-out: IC50) it was 0.0182 ng/mL (≈ 0.022 nM); in the data set on SH-SY5Y (Homo sapiens, read-out: IC50) it was 0.0113 ng/mL (≈ 0.0136 nM); with SW480 (Homo sapiens, read-out: IC50), 3.7 pg/mL (≈ 0.00447 nM); with U937 [5] (Homo sapiens, U-937, read-out: IC50), 2.5 pg/mL (≈ 0.00302 nM). In addition, the half-inhibitory concentration (IC50) in [1] (Homo sapiens, U2OS, read-out: IC50) turned out to be 0.0342 ng/mL (≈ 0.0413 nM); in data set [1] (setting [6]), 0.034 ng/mL (≈ 0.0411 nM). In addition, in the data set with PtK2 cells, the “concentration for complete de-polymerization (disappearance) of interphase microtubules” value was determined as 50 pg/mL. Further, the “potency relative to tubulysin A” value in the data set on cancer cell lines is given as “approximately 10 folds”.
For the compound `CC[C@H](C)[C@H](NC(=O)[C@H]1CCCCN1C)C(=O)N(C)[C@H](CCc1nc(C(=O)O)cs1)C(C)C` [pre-tubulysin-814], the anti-proliferation effects result in the data set on HL-60 cells (5 days, MTT) is recorded as “no anti-proliferation effects”. In addition, in the data set with HL-60 cells (at concentration up to 11 μg/ml, listed as Pre-tub-814), the cytotoxic activity entry is reported as “did not show any cytotoxic activity”.
With `CC[C@H](C)[C@H](NC(=O)[C@H]1CCCCN1C)C(=O)N(C)[C@H](CCc1nc(C(=O)N[C@@H](Cc2ccccc2)C(=O)O)cs1)C(C)C` [pre-tubulysin-815], the anti-proliferation effects entry with HL-60 cells (5 days, MTT) is given as “no anti-proliferation effects”. Moreover, the IC50 with HL-60 cells (Homo sapiens, HL-60) was determined as 700 ng/mL (≈ 1110 nM).
As to `CC[C@H](C)[C@H](NC(=O)CN(C)C)C(=O)N(C)[C@H](CCc1nc(C(=O)N[C@H](CCC(=O)O)Cc2ccccc2)cs1)C(C)C` [pre-tubulysin-825], the anti-proliferation effects result in the data set with HL-60 cells (5 days, MTT) was “no anti-proliferation effects”. In the data set on HL-60 cells (Homo sapiens, HL-60), the half-maximal inhibitory concentration (IC50) came to 600 ng/mL (≈ 974 nM).

(Values after US8791098B2 (priority 2008, dated 2014).)
